According to paper PMC9359912, “Pathogenic bacteria remodel central metabolic enzyme to build a cyclopropanol warhead” (Nature Chemistry, 2022):

Target: T1, BurG (Burkholderia thailandensis, UniProt Q2T3G7)
T1 construct: gene ilvC-2

NC(=O)C1=CN([C@@H]2O[C@H](COP(=O)(O)OP(=O)(O)OC[C@H]3O[C@@H](n4cnc5c(N)ncnc54)[C@H](O)[C@@H]3O)[C@@H](O)[C@H]2O)C=CC1 [NADH]
X-ray co-crystal structure, 2.05 Å: complexed between the two magnesium atoms and NADH in the active site
